Molecular target: CDK1/cyclin B (CDK1B) (Homo sapiens, UniProt P06493)
Test: ADP-Glo kinase assay, CDK1/cyclin B
Assay type: biochemical
Conditions: apparent Ki from IC50, ADP-Glo
Experimental: The luminescent ADP-Glo™ assay, which measures the amount of ADP formed in a kinase reaction as described previously, was used to determine the kinase inhibition profile of the compounds. […] Ki values were calculated from their corresponding IC50 values (the concentrations of inhibitors that inhibit the kinase activity by 50%) and the Michaelis–Menten constant (Km) of ATP for each kinase using the Cheng–Prusoff equation as previously stated. In brief, 1 μL of each concentration of the test compounds was added to the respective wells, and to it were added 1 μL of the kinases and their respective substrates, diluted to the desired concentration in kinase reaction buffer ([…] tris base pH 7.5, 20 mM MgCl2, 0.4 µM dithiothreitol, and 0.1 mg/mL bovine serum albumin), and the pH was adjusted by adding 1 μL of a two-fold diluted kinase reaction buffer. To initiate the kinase activity, 1 μL of ATP solution (the concentration varies depending on the type of kinase under investigation) was added to each well, and the mixture was incubated at room temperature (20 to 22 °C) for 30–60 min depending on the kinase being tested. The reaction was then halted, 5 μL of the ADP-Glo reagent was added to each well (removing any unreacted ATP), and it was incubated at room temperature for 40 min. Then, to each well, 10 μL of the kinase detection reagent containing luciferin was added, which was incubated once more at room temperature in the dark for 30 min and the luminescence was measured by an EnVision® multi-label plate reader with an integration time of 1.5 s per well. Positive controls (the wells without the inhibitor) and negative or blank controls (the wells without the inhibitor and the enzyme, but with 1 × kinase reaction buffer) were also determined in 2.5% DMSO.
The percentage of kinase inhibition was determined using the following equation: % Residual kinase activity=Luminescence in the presence of inhibitor−Luminescence of blank control/Luminescence in the absence of inhibitor−Luminescence of blank control×100%%kinase inhbition=100%−%Residual kinase activity
Km is defined as the concentration of ATP or the substrate required to produce 50% of the maximal reaction rate in the kinase reaction. Therefore, since we used the concentration of ATP and the substrate at their Km values, Ki simply equals IC50/2 assuming these inhibitors are ATP-competitive based on the Cheng–Prusoff equation: Ki = IC50/(1 + ([ATP]/Km(ATP))) where [ATP] is the ATP concentration used for the IC50 determination and Km(ATP) for each kinase was determined experimentally.

Sequence of CDK1/cyclin B (CDK1B) (P06493 whole entry): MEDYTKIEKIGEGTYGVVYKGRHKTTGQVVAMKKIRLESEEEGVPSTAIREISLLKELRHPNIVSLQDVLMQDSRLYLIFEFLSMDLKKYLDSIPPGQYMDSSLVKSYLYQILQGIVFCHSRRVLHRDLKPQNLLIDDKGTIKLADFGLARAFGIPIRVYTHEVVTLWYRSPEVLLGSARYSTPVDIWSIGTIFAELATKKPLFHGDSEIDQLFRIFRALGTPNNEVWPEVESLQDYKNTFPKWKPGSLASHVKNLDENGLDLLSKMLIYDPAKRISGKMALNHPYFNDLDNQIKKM
Sequence of CDK1/cyclin B (CDK1B) (P14635 whole entry partner): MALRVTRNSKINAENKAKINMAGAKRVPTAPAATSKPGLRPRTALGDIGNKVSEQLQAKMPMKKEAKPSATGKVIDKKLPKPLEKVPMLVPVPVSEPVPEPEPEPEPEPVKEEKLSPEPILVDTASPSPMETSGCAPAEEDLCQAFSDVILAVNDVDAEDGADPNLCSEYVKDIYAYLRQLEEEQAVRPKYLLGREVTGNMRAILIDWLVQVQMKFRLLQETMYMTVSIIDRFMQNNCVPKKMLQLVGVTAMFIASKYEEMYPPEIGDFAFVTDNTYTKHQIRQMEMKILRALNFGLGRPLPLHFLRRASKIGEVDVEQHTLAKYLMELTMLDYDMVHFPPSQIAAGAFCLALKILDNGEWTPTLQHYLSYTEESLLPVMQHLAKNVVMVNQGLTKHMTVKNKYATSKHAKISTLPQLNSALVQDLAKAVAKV

- Ki: 25 nM
Structure (SMILES): Cn1cc(-c2nc(Nc3cn[nH]c3)ncc2Cl)cn1 [Compound 15, 5-Chloro-4-(1-methyl-1H-pyrazol-4-yl)-N-(1H-pyrazol-4-yl)pyrimidin-2-amine]
